Experimental data as given in patent publication US5208340A, “Process for producing an aryl-imido-peralkanoic acid by oxidizing the corresponding aryl-imido-alkanoic acid with hydrogen peroxide” (Ausimont S.p.A., priority 1990, dated 1993).

Assay: Solubility of PAC and PAP in halogenated solvents (Table 1)
Assay type: physicochemical
Conditions: for solubility in the particular halogenated solvents (in words): methylene chloride and trichloromethane
Excerpt: The novel mechanism results in high conversion and yield under low temperature, low viscosity and internal system temperature control conditions. In addition, a very efficient product recovery can be obtained from the inorganic phase. Of course, the pressure should be such as to keep the system in the liquid phase.

Solubility (Dichloromethane, at 14° C.)	Solubility (Dichloromethane, at 25° C.)	Solubility (Trichloromethane, at 14° C.)	Solubility (Trichloromethane, at 25° C.)	solubility in the particular halogenated solvents (in words)	Solubility (Dichloromethane, at 25° C., (**) Estimated value)	SMILES
51.1 g per 100 cm^3 of solvent	67.3 g per 100 cm^3 of solvent	52.3 g per 100 cm^3 of solvent	67.9 g per 100 cm^3 of solvent	even more soluble		O=C(O)CCCCCN1C(=O)c2ccccc2C1=O [PAC, ε-phthalimidohexanoic acid]
26.3 g per 100 cm^3 of solvent		26.1 g per 100 cm^3 of solvent	34.9 g per 100 cm^3 of solvent	soluble	35.2 g per 100 cm^3 of solvent	O=C(CCCCCN1C(=O)c2ccccc2C1=O)OO [PAP, ε-phthalimidoperhexanoic acid]
